Assay results from the NIST ThermoML archive (doi:10.1021/acs.jced.5b00627).
± gives the expanded uncertainty stated by the source.

Columns and labels:
[1] = mn = molality of the nth substance listed, in mol/kg; conditions: 100 kPa, Liquid; for viscosity: Capillary tube (Ostwald / Ubbelohde) method; for speed of sound: Frequency=3 MHz, Sing-around technique in a fixed-path interferometer; for mass density: Vibrating tube method
[2] = Crystal; DTA

COc1cc(-c2cc(-c3ccccc3)[nH]c(=O)c2C#N)ccc1O + C[S+](C)[O-]
viscosity ([1]; 298.15 K, m1 = 0.01): 1.876 ± 0.34 mPa·s
viscosity ([1]; 298.15 K, m1 = 0.02): 1.916 ± 0.35 mPa·s
viscosity ([1]; 298.15 K, m1 = 0.04): 1.976 ± 0.36 mPa·s
viscosity ([1]; 298.15 K, m1 = 0.06): 2.02 ± 0.37 mPa·s
viscosity ([1]; 298.15 K, m1 = 0.08): 2.063 ± 0.37 mPa·s
viscosity ([1]; 298.15 K, m1 = 0.1): 2.107 ± 0.38 mPa·s
speed of sound ([1]; 298.15 K, m1 = 0.01): 1485.9 ± 1.3 m/s
speed of sound ([1]; 298.15 K, m1 = 0.02): 1486.8 ± 1.3 m/s
speed of sound ([1]; 298.15 K, m1 = 0.04): 1488 ± 1.3 m/s
speed of sound ([1]; 298.15 K, m1 = 0.06): 1489.1 ± 1.3 m/s
speed of sound ([1]; 298.15 K, m1 = 0.08): 1490.3 ± 1.3 m/s
speed of sound ([1]; 298.15 K, m1 = 0.1): 1491 ± 1.3 m/s
mass density ([1]; 298.15 K, m1 = 0.01): 1096.02 ± 1 kg/m3
mass density ([1]; 298.15 K, m1 = 0.02): 1096.69 ± 1 kg/m3
mass density ([1]; 298.15 K, m1 = 0.04): 1097.59 ± 1 kg/m3
mass density ([1]; 298.15 K, m1 = 0.06): 1098.59 ± 1 kg/m3
mass density ([1]; 298.15 K, m1 = 0.08): 1099.69 ± 1 kg/m3
mass density ([1]; 298.15 K, m1 = 0.1): 1100.84 ± 1 kg/m3
viscosity ([1]; 308.15 K, m1 = 0.01): 1.525 ± 0.28 mPa·s
viscosity ([1]; 308.15 K, m1 = 0.02): 1.562 ± 0.28 mPa·s
viscosity ([1]; 308.15 K, m1 = 0.04): 1.603 ± 0.29 mPa·s
viscosity ([1]; 308.15 K, m1 = 0.06): 1.638 ± 0.3 mPa·s
viscosity ([1]; 308.15 K, m1 = 0.08): 1.668 ± 0.3 mPa·s
viscosity ([1]; 308.15 K, m1 = 0.1): 1.697 ± 0.31 mPa·s
speed of sound ([1]; 308.15 K, m1 = 0.01): 1451.9 ± 1.3 m/s
speed of sound ([1]; 308.15 K, m1 = 0.02): 1452.8 ± 1.3 m/s
speed of sound ([1]; 308.15 K, m1 = 0.04): 1453.9 ± 1.3 m/s
speed of sound ([1]; 308.15 K, m1 = 0.06): 1455 ± 1.3 m/s
speed of sound ([1]; 308.15 K, m1 = 0.08): 1456 ± 1.3 m/s
speed of sound ([1]; 308.15 K, m1 = 0.1): 1456.8 ± 1.3 m/s
mass density ([1]; 308.15 K, m1 = 0.01): 1086.02 ± 1 kg/m3
mass density ([1]; 308.15 K, m1 = 0.02): 1086.78 ± 1 kg/m3
mass density ([1]; 308.15 K, m1 = 0.04): 1087.93 ± 1 kg/m3
mass density ([1]; 308.15 K, m1 = 0.06): 1088.74 ± 1 kg/m3
mass density ([1]; 308.15 K, m1 = 0.08): 1089.59 ± 1 kg/m3
mass density ([1]; 308.15 K, m1 = 0.1): 1090.64 ± 1 kg/m3
viscosity ([1]; 318.15 K, m1 = 0.01): 1.242 ± 0.23 mPa·s
viscosity ([1]; 318.15 K, m1 = 0.02): 1.276 ± 0.23 mPa·s
viscosity ([1]; 318.15 K, m1 = 0.04): 1.319 ± 0.24 mPa·s
viscosity ([1]; 318.15 K, m1 = 0.06): 1.345 ± 0.24 mPa·s
viscosity ([1]; 318.15 K, m1 = 0.08): 1.37 ± 0.25 mPa·s
viscosity ([1]; 318.15 K, m1 = 0.1): 1.41 ± 0.26 mPa·s
speed of sound ([1]; 318.15 K, m1 = 0.01): 1418.1 ± 1.3 m/s
speed of sound ([1]; 318.15 K, m1 = 0.02): 1419.1 ± 1.3 m/s
speed of sound ([1]; 318.15 K, m1 = 0.04): 1420.5 ± 1.3 m/s
speed of sound ([1]; 318.15 K, m1 = 0.06): 1421.6 ± 1.3 m/s
speed of sound ([1]; 318.15 K, m1 = 0.08): 1422.6 ± 1.3 m/s
speed of sound ([1]; 318.15 K, m1 = 0.1): 1423.7 ± 1.3 m/s
mass density ([1]; 318.15 K, m1 = 0.01): 1076.08 ± 1 kg/m3
mass density ([1]; 318.15 K, m1 = 0.02): 1076.69 ± 1 kg/m3
mass density ([1]; 318.15 K, m1 = 0.04): 1077.85 ± 1 kg/m3
mass density ([1]; 318.15 K, m1 = 0.06): 1078.84 ± 1 kg/m3
mass density ([1]; 318.15 K, m1 = 0.08): 1079.75 ± 1 kg/m3
mass density ([1]; 318.15 K, m1 = 0.1): 1080.75 ± 1 kg/m3

COc1cc(-c2cc(-c3ccccc3O)[nH]c(=O)c2C#N)ccc1O
Normal melting temperature [2]: 234.49 ± 1.8 °C

COc1cc(-c2cc(-c3ccc(Cl)cc3)[nH]c(=O)c2C#N)ccc1O
Normal melting temperature [2]: 328.34 ± 1.8 °C

C[S+](C)[O-] [dimethyl sulfoxide] + COc1cc(-c2cc(-c3ccccc3O)[nH]c(=O)c2C#N)ccc1O
viscosity ([1]; 298.15 K, m2 = 0): 1.814 ± 0.33 mPa·s
speed of sound ([1]; 298.15 K, m2 = 0): 1484.8 ± 1.3 m/s
mass density ([1]; 298.15 K, m2 = 0): 1095.28 ± 1 kg/m3
viscosity ([1]; 308.15 K, m2 = 0): 1.472 ± 0.27 mPa·s
speed of sound ([1]; 308.15 K, m2 = 0): 1450.9 ± 1.3 m/s
mass density ([1]; 308.15 K, m2 = 0): 1085.23 ± 1 kg/m3
viscosity ([1]; 318.15 K, m2 = 0): 1.176 ± 0.21 mPa·s
speed of sound ([1]; 318.15 K, m2 = 0): 1417.4 ± 1.3 m/s
mass density ([1]; 318.15 K, m2 = 0): 1075.19 ± 1 kg/m3

COc1cc(-c2cc(-c3ccc(O)cc3)[nH]c(=O)c2C#N)ccc1O
Normal melting temperature [2]: 326.33 ± 1.8 °C

C[S+](C)[O-] [dimethyl sulfoxide] + COc1cc(-c2cc(-c3ccccc3)[nH]c(=O)c2C#N)ccc1O
viscosity ([1]; 298.15 K, m2 = 0): 1.814 ± 0.33 mPa·s
speed of sound ([1]; 298.15 K, m2 = 0): 1484.8 ± 1.3 m/s
mass density ([1]; 298.15 K, m2 = 0): 1095.28 ± 1 kg/m3
viscosity ([1]; 308.15 K, m2 = 0): 1.472 ± 0.27 mPa·s
speed of sound ([1]; 308.15 K, m2 = 0): 1450.9 ± 1.3 m/s
mass density ([1]; 308.15 K, m2 = 0): 1085.23 ± 1 kg/m3
viscosity ([1]; 318.15 K, m2 = 0): 1.176 ± 0.21 mPa·s
speed of sound ([1]; 318.15 K, m2 = 0): 1417.4 ± 1.3 m/s
mass density ([1]; 318.15 K, m2 = 0): 1075.19 ± 1 kg/m3

COc1cc(-c2cc(-c3ccccc3O)[nH]c(=O)c2C#N)ccc1O + C[S+](C)[O-]
viscosity ([1]; 298.15 K, m1 = 0.01): 1.88 ± 0.34 mPa·s
viscosity ([1]; 298.15 K, m1 = 0.02): 1.958 ± 0.35 mPa·s
viscosity ([1]; 298.15 K, m1 = 0.04): 2.037 ± 0.37 mPa·s
viscosity ([1]; 298.15 K, m1 = 0.06): 2.124 ± 0.38 mPa·s
viscosity ([1]; 298.15 K, m1 = 0.08): 2.201 ± 0.4 mPa·s
viscosity ([1]; 298.15 K, m1 = 0.1): 2.301 ± 0.42 mPa·s
speed of sound ([1]; 298.15 K, m1 = 0.01): 1486 ± 1.3 m/s
speed of sound ([1]; 298.15 K, m1 = 0.02): 1487 ± 1.3 m/s
speed of sound ([1]; 298.15 K, m1 = 0.04): 1488.6 ± 1.3 m/s
speed of sound ([1]; 298.15 K, m1 = 0.06): 1490.2 ± 1.3 m/s
speed of sound ([1]; 298.15 K, m1 = 0.08): 1491.7 ± 1.3 m/s
speed of sound ([1]; 298.15 K, m1 = 0.1): 1493.5 ± 1.3 m/s
mass density ([1]; 298.15 K, m1 = 0.01): 1096.09 ± 1 kg/m3
mass density ([1]; 298.15 K, m1 = 0.02): 1097.16 ± 1 kg/m3
mass density ([1]; 298.15 K, m1 = 0.04): 1098.32 ± 1 kg/m3
mass density ([1]; 298.15 K, m1 = 0.06): 1099.5 ± 1 kg/m3
mass density ([1]; 298.15 K, m1 = 0.08): 1100.68 ± 1 kg/m3
mass density ([1]; 298.15 K, m1 = 0.1): 1101.83 ± 1 kg/m3
viscosity ([1]; 308.15 K, m1 = 0.01): 1.535 ± 0.28 mPa·s
viscosity ([1]; 308.15 K, m1 = 0.02): 1.57 ± 0.28 mPa·s
viscosity ([1]; 308.15 K, m1 = 0.04): 1.608 ± 0.29 mPa·s
viscosity ([1]; 308.15 K, m1 = 0.06): 1.645 ± 0.3 mPa·s
viscosity ([1]; 308.15 K, m1 = 0.08): 1.685 ± 0.31 mPa·s
viscosity ([1]; 308.15 K, m1 = 0.1): 1.716 ± 0.31 mPa·s
speed of sound ([1]; 308.15 K, m1 = 0.01): 1452.1 ± 1.3 m/s
speed of sound ([1]; 308.15 K, m1 = 0.02): 1453.1 ± 1.3 m/s
speed of sound ([1]; 308.15 K, m1 = 0.04): 1454.2 ± 1.3 m/s
speed of sound ([1]; 308.15 K, m1 = 0.06): 1455.2 ± 1.3 m/s
speed of sound ([1]; 308.15 K, m1 = 0.08): 1456.3 ± 1.3 m/s
speed of sound ([1]; 308.15 K, m1 = 0.1): 1457 ± 1.3 m/s
mass density ([1]; 308.15 K, m1 = 0.01): 1086.41 ± 1 kg/m3
mass density ([1]; 308.15 K, m1 = 0.02): 1087.16 ± 1 kg/m3
mass density ([1]; 308.15 K, m1 = 0.04): 1088.47 ± 1 kg/m3
mass density ([1]; 308.15 K, m1 = 0.06): 1089.66 ± 1 kg/m3
mass density ([1]; 308.15 K, m1 = 0.08): 1090.65 ± 1 kg/m3
mass density ([1]; 308.15 K, m1 = 0.1): 1091.96 ± 1 kg/m3
viscosity ([1]; 318.15 K, m1 = 0.01): 1.247 ± 0.23 mPa·s
viscosity ([1]; 318.15 K, m1 = 0.02): 1.287 ± 0.23 mPa·s
viscosity ([1]; 318.15 K, m1 = 0.04): 1.327 ± 0.24 mPa·s
viscosity ([1]; 318.15 K, m1 = 0.06): 1.359 ± 0.25 mPa·s
viscosity ([1]; 318.15 K, m1 = 0.08): 1.399 ± 0.25 mPa·s
viscosity ([1]; 318.15 K, m1 = 0.1): 1.458 ± 0.26 mPa·s
speed of sound ([1]; 318.15 K, m1 = 0.01): 1418.6 ± 1.3 m/s
speed of sound ([1]; 318.15 K, m1 = 0.02): 1419.5 ± 1.3 m/s
speed of sound ([1]; 318.15 K, m1 = 0.04): 1420.8 ± 1.3 m/s
speed of sound ([1]; 318.15 K, m1 = 0.06): 1422 ± 1.3 m/s
speed of sound ([1]; 318.15 K, m1 = 0.08): 1423 ± 1.3 m/s
speed of sound ([1]; 318.15 K, m1 = 0.1): 1424.3 ± 1.3 m/s
mass density ([1]; 318.15 K, m1 = 0.01): 1076.4 ± 1 kg/m3
mass density ([1]; 318.15 K, m1 = 0.02): 1077.18 ± 1 kg/m3
mass density ([1]; 318.15 K, m1 = 0.04): 1078.47 ± 1 kg/m3
mass density ([1]; 318.15 K, m1 = 0.06): 1079.56 ± 1 kg/m3
mass density ([1]; 318.15 K, m1 = 0.08): 1080.71 ± 1 kg/m3
mass density ([1]; 318.15 K, m1 = 0.1): 1081.9 ± 1 kg/m3

C[S+](C)[O-] [dimethyl sulfoxide] + COc1cc(-c2cc(-c3ccc(Cl)cc3)[nH]c(=O)c2C#N)ccc1O
viscosity ([1]; 298.15 K, m2 = 0): 1.814 ± 0.33 mPa·s
speed of sound ([1]; 298.15 K, m2 = 0): 1484.8 ± 1.3 m/s
mass density ([1]; 298.15 K, m2 = 0): 1095.28 ± 1 kg/m3
viscosity ([1]; 308.15 K, m2 = 0): 1.472 ± 0.27 mPa·s
speed of sound ([1]; 308.15 K, m2 = 0): 1450.9 ± 1.3 m/s
mass density ([1]; 308.15 K, m2 = 0): 1085.23 ± 1 kg/m3
viscosity ([1]; 318.15 K, m2 = 0): 1.176 ± 0.21 mPa·s
speed of sound ([1]; 318.15 K, m2 = 0): 1417.4 ± 1.3 m/s
mass density ([1]; 318.15 K, m2 = 0): 1075.19 ± 1 kg/m3
